The values below come from ChEMBL document CHEMBL1201862, “PubChem BioAssay data set” (2004).

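Test compounds were applied to cells in 96-well plates for 48 hours at 5 doses. GI50 is the concentration that inhibits growth by half.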 The source made the active and inactive calls. Cut-off read from the data, not from the text of the source: active = GI50 up to about 1.1 µM and inactive = higher. Some results are limits rather than exact numbers.

Some test systems named below: OVCAR-4; HL-60; UACC-257; NCI-H460; IGROV-1; SK-OV-3; HCT-116; U-251; CAKI-1; SK-MEL-2; UACC-62; SK-MEL-28; OVCAR-8; SF-539; A549; UO-31; RXF 393; SNB-19; NCI-H226.
Holding throughout (experiment): growth of human tumour cells (NCI), 48 h

Turning to `Oc1ccc(Cl)cc1C1=Nn2c(COc3ccc4c(c3)CCCC4)nnc2SC1`, the GI50 was 1.44 µM (inactive) in the assay with OVCAR-4; 15 µM (inactive) in the assay on HL-60; 16.3 µM (inactive) in the assay with UACC-257; 14 µM (inactive) in the assay on NCI-H460; 11.6 µM (inactive) with IGROV-1; 16.9 µM (inactive) in the assay with SK-OV-3. Moreover, the GI50 with HCT-116 is 6.56 µM (inactive); in the assay on U-251 it was 15.3 µM (inactive); with CAKI-1 it was 19.4 µM (inactive); with SK-MEL-2 it was 15.4 µM (inactive); with UACC-62 it was 12.4 µM (inactive); in the assay with SK-MEL-28, 0.129 µM (active). The GI50 was 14.9 µM (inactive) in the assay on OVCAR-8; 16.7 µM (inactive) in the assay on SF-539; 25.5 µM (inactive) in the assay with A549; 10.5 µM (inactive) with UO-31; 16.5 µM (inactive) with RXF 393; 20.7 µM (inactive) in the assay on SNB-19.

As to `CCOC(=O)C1C(c2cc(OC)c(O)c(OC)c2)c2cc3c(cc2OC1(C)O)OCO3` (stereo not given), the GI50 is 57.8 µM (inactive) in the assay with OVCAR-4; > 100 µM (inactive) in the assay with HL-60; 61.9 µM (inactive) in the assay on UACC-257; 48.2 µM (inactive) in the assay on NCI-H460; > 100 µM (inactive) with IGROV-1; > 100 µM (inactive) in the assay on SK-OV-3. Moreover, the GI50 in the assay with HCT-116 is 47.3 µM (inactive); in the assay with U-251, 78.9 µM (inactive); with CAKI-1, 26 µM (inactive); in the assay with SK-MEL-2, > 100 µM (inactive); in the assay with UACC-62 it was 43.9 µM (inactive); in the assay on SK-MEL-28, 60.7 µM (inactive). The GI50 with OVCAR-8 is > 100 µM (inactive); in the assay with SF-539, > 100 µM (inactive); with A549, 45.6 µM (inactive); with UO-31, 41.8 µM (inactive); in the assay on SNB-19, > 100 µM (inactive).

On to `Cn1ncc2c(=O)[nH]c(-c3ccccc3)nc21`, for which the GI50 in the assay on OVCAR-4, in the assay with HL-60, with UACC-257, with IGROV-1, in the assay with SK-OV-3 and in the assay on U-251 was > 100 µM (inactive) in each case. The GI50 in the assay on CAKI-1, with SK-MEL-2, in the assay on UACC-62, in the assay with SK-MEL-28, in the assay on OVCAR-8 and in the assay on SF-539 was > 100 µM (inactive) throughout. Further, the GI50 with A549, in the assay on UO-31, in the assay on RXF 393 and with SNB-19 was > 100 µM (inactive) in each case.

Regarding `O=c1ccn(C2OC(CN(O)CCC3C(O)C(CO)OC3n3ccc(=O)[nH]c3=O)C(O)C2O)c(=O)[nH]1` (stereo not given), the GI50 in the assay with OVCAR-4, in the assay with NCI-H460, in the assay with IGROV-1, in the assay on SK-OV-3, in the assay with HCT-116 and in the assay on U-251 was > 100 µM (inactive) throughout. The GI50 with CAKI-1, with SK-MEL-2, in the assay with OVCAR-8, in the assay with NCI-H226, in the assay on A549 and in the assay with UO-31 was > 100 µM (inactive) each time. Further, the GI50 in the assay with SNB-19 is > 100 µM (inactive).

As to `CCOC1CC2OC(=O)C1C=C2C(=O)OC` (stereo not given), the GI50 with OVCAR-4 was 23.1 µM (inactive); in the assay with HL-60, 19.6 µM (inactive); in the assay on UACC-257, 27.7 µM (inactive); in the assay on NCI-H460, 79.3 µM (inactive); in the assay on IGROV-1 it was 46.6 µM (inactive); in the assay with SK-OV-3, > 100 µM (inactive). In addition, the GI50 is 50.1 µM (inactive) with U-251; 22.3 µM (inactive) with CAKI-1; 31.4 µM (inactive) in the assay with SK-MEL-2; 30.5 µM (inactive) in the assay with UACC-62; 21 µM (inactive) with SK-MEL-28; 24.8 µM (inactive) in the assay on SF-539. The GI50 is 32.7 µM (inactive) with NCI-H226, > 100 µM (inactive) in the assay with A549, 35.7 µM (inactive) in the assay with UO-31 and 28 µM (inactive) in the assay on SNB-19.
